In publication PMC2920549, “Bromopyrrole Alkaloids as Lead Compounds against Protozoan Parasites” (Marine Drugs, 2010):
≈ marks a conversion by molar mass, not a printed value. Read-outs that look alike come from different tables or passages of the source.

Key:
[1] = target: T1, PfFabZ (β-hydroxyacyl-ACP dehydratase) (Plasmodium falciparum, UniProt Q965D7); assay: biochemical
T1 construct: made in house
T1 sequence (Q965D7 19-230): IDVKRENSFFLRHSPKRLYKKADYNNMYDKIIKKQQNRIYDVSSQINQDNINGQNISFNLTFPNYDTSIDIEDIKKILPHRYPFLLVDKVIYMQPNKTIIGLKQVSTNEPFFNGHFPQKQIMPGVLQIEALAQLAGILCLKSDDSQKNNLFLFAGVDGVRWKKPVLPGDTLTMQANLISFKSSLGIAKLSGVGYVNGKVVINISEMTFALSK
Experimental: Expression and purification of the PfFab enzymes as well as the assays were performed as described [29]. […] Measurements were carried out in Nundron Surface sterile 96-well plates, using 20 mM Hepes and 150 mM NaCl at pH 7.4. Compounds were dissolved in DMSO (maximum final concentration 1%). A dilution series of 50 μg/mL to 0.0005 μg/mL of dissolved compounds was measured. For PfFabI, 400 μM NADH (cofactor, Sigma) was added to 2 μg enzyme and reaction started by addition of 300 μM crotonyl-CoA (substrate, Sigma). The change of absorbance of the mixture was recorded spectrophotometrically at 340 nm for 40 minutes. Triclosan was used as a positive control and was analyzed the same way. For PfFabG 400 μM NADPH (cofactor, Fluka) was added to 0.5 μg enzyme and reaction started by addition of 300 μM acetoacetyl-CoA (substrate, Sigma). The change of absorbance of the mixture was recorded spectrophotometrically at 340 nm for 20 minutes. (-)-Epigallocatechin gallate (Sigma) was used as a positive control and was analyzed the same way. For PfFabZ, 600 μM crotonoyl-CoA (substrate, Sigma) was added to 0.5 μg enzyme. The change of absorbance of the mixture was recorded spectrophotometrically at 260 nm for 20 minutes. (−)-Epigallocatechin gallate was used as a positive control. IC50 values were estimated from graphically plotted dose-response curves. […]

[2] = system: T. cruzi Tulahuen strain C2C4 intracellular amastigotes in L6 rat skeletal myoblasts; assay: Activity against Trypanosoma cruzi (beta-galactosidase/CPRG assay in L6 cells); assay type: cell-based; settings: Trypanosoma cruzi, TULAHUEN, L6, 96 h
Experimental: Then the substrate CPRG/Nonidet (50 μl) was added to all wells. A color reaction developed within 2–6 h and could be read photometrically at 540 nm. Data were transferred into the graphic programme Softmax Pro (Molecular Devices), which calculated IC50 values. […] Benznidazole was the standard drug used.

[3] = system: P. falciparum K1 strain erythrocytic stages; assay: Activity against Plasmodium falciparum ([3H]-hypoxanthine incorporation); assay type: cell-based; settings: for IC50: Plasmodium falciparum
Experimental: (§1) The toxicity on mammalian cells was assessed against L6 cells, a primary cell line derived from rat skeletal myoblasts.
The radioactivity was counted using a Betaplate^TM liquid scintillation counter (Wallac, Zurich, Switzerland). […] IC50 values were calculated from graphically plotted dose-response curves.

[4] = system: T. cruzi Tulahuen strain C2C4 intracellular amastigotes in L6 rat skeletal myoblasts; design: method as in PMID 17765547; settings: earlier study; cited from earlier work
[5] = system: T. b. rhodesiense STIB 900 bloodstream forms; design: method as in PMID 17765547; settings: earlier study; cited from earlier work
[6] = system: P. falciparum K1 strain erythrocytic stages; design: method as in PMID 17765547; settings: earlier study; cited from earlier work
[7] = system: PfFabI (enoyl-ACP reductase); design: method as in PMID 17765547; settings: previous project; cited from earlier work
[8] = system: L6 cells; design: method as in PMID 17765547; settings: earlier study; cited from earlier work
[9] = system: L. donovani strain MHOM/ET/67/L82 axenic amastigotes; design: method as in PMID 17765547; settings: earlier study; cited from earlier work
[10] = system: L. donovani strain MHOM/ET/67/L82 axenic amastigotes; assay: Activity against Leishmania donovani (axenic amastigotes, resazurin); assay type: cell-based; settings: 72 h, axenic amastigotes, 72 h; for IC50: Leishmania donovani, read-out: IC50 L. donovani
Experimental: as §1
Amastigotes of L. donovani strain MHOM/ET/67/L82 were grown in axenic culture at 37 °C in SM medium at pH 5.4 supplemented with 10% heat-inactivated fetal bovine serum under an atmosphere of 5% CO2 in air. One hundred μL of culture medium with 10^5 amastigotes from axenic culture with or without a serial drug dilution were seeded in 96-well microtiter plates. […] Data were analyzed using the software Softmax Pro. Decrease of fluorescence (=inhibition) was expressed as percentage of the fluorescence of control cultures and plotted against the drug concentrations. From the sigmoidal inhibition curves the IC50 values were calculated. […] Miltefosine was used as a reference drug.

[11] = Cytotoxicity against L6-cells (resazurin); assay type: cell-based, rat; settings: rat
Experimental: as §1
(§2) Assays were performed in 96-well microtiter plates, each well containing 100 μL of RPMI 1640 medium supplemented with 1% L-glutamine (200 mM) and 10% fetal bovine serum, and 4 × 10^4 L-6 cells (a primary cell line derived from rat skeletal myoblasts). Serial drug dilutions of seven 3-fold dilution steps covering a range from 90 to 0.123 μg/mL were prepared. After 72 h of incubation the plates were inspected under an inverted microscope to assure growth of the controls and sterile conditions. 10 μl of a resazurin solution (12.5 mg resazurin dissolved in 100 mL distilled water) was then added to each well and the plates incubated for another 2 h. Then the plates were read with a Spectramax Gemini XS microplate fluorometer using an excitation wavelength of 536 nm and an emission wavelength of 588 nm. Data were analyzed using the microplate reader software Softmax Pro. Each CC50 value obtained is the mean of at least two separate experiments performed in duplicate. Podophyllotoxin was the standard drug used.

[12] = system: T. b. rhodesiense STIB 900 bloodstream forms; assay: Activity against Trypanosoma brucei rhodesiense (resazurin assay); assay type: cell-based; settings: Trypanosoma brucei; STIB 900 bloodstream forms, 72 h; read-out: IC50 T. b. rhodesiense
Experimental: as §1
STIB 900 strain of T. b. rhodesiense and the standard drug melarsoprol were used for the assay. […] Data were analyzed using the microplate reader software Softmax Pro (Molecular Devices Cooperation, Sunnyvale, CA, USA).

[13] = system: L6 cells; assay: Cytotoxicity against L6-cells (resazurin); assay type: cell-based, rat; settings: 72 h
Experimental: as §1, §2

[14] = K1, K1 strain, erythrocytic stage, read-out: IC50 P. falciparum

SMILES	IC50 [2]	IC50 [10]	CC50 at 72 h [11]	IC50 [12]	IC50 [3, 14]	also measured
O=C(O[C@@H]1Cc2c(O)cc(O)cc2O[C@@H]1c1cc(O)c(O)c(O)c1)c1cc(O)c(O)c(O)c1 [(−)-epigallocatechin gallate, reference compound]						IC50 [1]: 0.698 µM
O=C(Cn1ccnc1[N+](=O)[O-])NCc1ccccc1 [Benznidazole, reference compound]	0.312 mg/L (≈ 1.2 µM)					
CCN(CC)CCCC(C)Nc1ccnc2cc(Cl)ccc12 (stereo not shown) [Chloroquine, reference compound]						IC50 ([3]; K1, read-out: IC50 P. falciparum): 0.065 mg/L (≈ 0.203 µM)
Nc1ncc(/C=C/CNC(=O)c2cc(Br)c(Br)[nH]2)[nH]1 [Compound 1a, oroidin]						IC50 T. cruzi [4]: >30 ^1 μg/mL; IC50 T. b. rhodesiense [5]: 17.30 ^1 μg/mL; IC50 P. falciparum [6]: 3.90 ^1 μg/mL; PfFabI inhibition (in words) [7]: potent PfFAbI inhibitors; CC50 Cytotoxicity L6 cells [8]: 88.60 ^1 μg/mL; IC50 L. donovani [9]: >30 ^1 μg/mL
Nc1ncc(/C=C/CNC(=O)c2cc(Br)c(Br)[nH]2)[nH]1 [Compound 1b, oroidin]						IC50 T. cruzi [4]: >30 ^1 μg/mL; IC50 T. b. rhodesiense [5]: 12.20 ^1 μg/mL; IC50 P. falciparum [6]: 7.90 ^1 μg/mL; PfFabI inhibition (in words) [7]: potent PfFAbI inhibitors; CC50 Cytotoxicity L6 cells [8]: 76.40 ^1 μg/mL; IC50 L. donovani [9]: 15.40 ^1 μg/mL
Nc1ncc(/C=C/CNC(=O)c2cc(Br)c[nH]2)[nH]1 [Compound 2, hymenidin]		29.9 mg/L (≈ 96.3 µM)	75.7 mg/L (≈ 244 µM)	77.6 mg/L (≈ 250 µM)	12.5 mg/L (≈ 40.4 µM)	
NC1=NC(=O)/C(=C/CCNC(=O)c2cc(Br)c[nH]2)N1 [Compound 3, dispacamide B]	> 90 mg/L	> 90 mg/L	> 90 mg/L	40.1 mg/L (≈ 123 µM)	1.09 mg/L (≈ 3.34 µM)	IC50 L. donovani [10]: completely inactive; CC50 Cytotoxicity L6 cells [13]: devoid of any cytotoxicity; Selectivity index (CC50 L6 / IC50 parasite) for P. falciparum ([3]; CC50 L6 cells divided by IC50 P. falciparum): > 67.2; IC50 P. falciparum ([3]; K1 strain, erythrocytic stage): 1.34 mg/L (≈ 4.11 µM)
NC1=NC(=O)/C(=C/C(O)CNC(=O)c2cc(Br)c[nH]2)N1 (stereo not shown) [Compound 4, dispacamide D]	> 90 mg/L	53.8 mg/L (≈ 157 µM)	> 90 mg/L	68.2 mg/L (≈ 199 µM)	> 20 mg/L	
Nc1ncc(C2=CCNC(=O)c3[nH]c(Br)c(Br)c32)[nH]1 [Compound 5, stevensine]	> 90 mg/L	75.9 mg/L (≈ 196 µM)	> 90 mg/L	25.3 mg/L (≈ 65.5 µM)	4.88 mg/L (≈ 12.6 µM)	
O=C1CCNC(=O)c2[nH]c(Br)cc21 [Compound 7, bromoaldisin]	> 90 mg/L	> 90 mg/L	> 90 mg/L	61.5 mg/L (≈ 253 µM)	> 20 mg/L	
